{"source": "patent EP1432446B1", "about": "“METHODS FOR THE IDENTIFICATION OF POLYPEPTIDE ANTIGENS ASSOCIATED WITH DISORDERS INVOLVING ABERRANT CELL PROLIFERATION” (Genentech, Inc., priority 2001, dated 2003)", "origin": "cited, not measured here", "data": [{"smiles": "COc1cc2cc(c1Cl)N(C)C(=O)C[C@H](OC(=O)[C@H](C)N(C)C(C)=O)[C@]1(C)O[C@H]1[C@H](C)[C@@H]1C[C@@](O)(NC(=O)O1)[C@H](OC)/C=C/C=C(\\C)C2", "note": "[maytansine, Maytansine]", "values": [{"measurement": "adverse effects in clinical trials", "setting": "clinical trials discontinued", "result": "serious adverse effects on the central nervous system and gastrointestinal system"}, {"measurement": "associated toxicity", "setting": "in vivo", "result": "peripheral neuropathy"}]}]}
